Results taken from ChEMBL document CHEMBL4041528, “Natural NO inhibitors from the leaves of Callicarpa kwangtungensis: Structures, activities, and interactions with iNOS” (Bioorg Med Chem Lett, 2017).

How the values were obtained:
BV-2 [1] = assay: Cytotoxicity against mouse BV2 cells NO inhibitory IC50 by MTT assay; type: cell-based
BV-2 [2] = assay: Inhibition of LPS-induced NO production in mouse BV2 cells after 20 hrs by Griess assay; type: functional, cell-based; settings: BV-2, 20 h

| SMILES | Activity (BV-2 [1]) | IC50 (BV-2 [2]) |
| --- | --- | --- |
| CC1(C)C[C@@H]2C(=O)CC[C@H]3O[C@]3(C)CC[C@H]21 [KOBUSONE] | Non-Toxic | > 81 µM |
| C=C(C)c1ccc2c(c1)CC[C@H]1[C@](C)(C(=O)O)CCC[C@]1(C)O2 | Non-Toxic | 25.5 µM |
| CC(C)[C@]12CC[C@@]34O[C@@]3(CC[C@H]3[C@](C)(C(=O)O)CCC[C@@]34C)[C@H]1O2 | Non-Toxic | > 81 µM |
| CC(C)c1ccc2c(c1)[C@@H](O)C[C@H]1[C@](C)(C(=O)O)CCC[C@]21C | Non-Toxic | 17.9 µM |
| C=C1CC[C@H](O)[C@@]2(C)O[C@H]2C[C@@H]2[C@@H]1CC2(C)C | Non-Toxic | 42.6 µM |
| CC1(C)C[C@H](O)[C@]23CC[C@@H](O)[C@](C)(CC[C@@H]12)C3 | Non-Toxic | 62.2 µM |
| CC(C)[C@@]12C=C3[C@H](O)C[C@H]4[C@](C)(C(=O)O)CCC[C@]4(C)[C@]3(CC1)OO2 | Non-Toxic | > 81 µM |
| CO[C@@H]1C[C@H]2[C@](C)(C(=O)O)CCC[C@]2(C)[C@]23CC[C@](C(C)C)(C=C12)OO3 | Non-Toxic | 23.7 µM |
| CC(C)[C@@]12C=C3CC[C@H]4[C@](C)(C(=O)O)CCC[C@]4(C)[C@]3(CC1)OO2 | Non-Toxic | 52.4 µM |
| CC(C)[C@]12C=C3CC[C@H]4[C@](C)(C(=O)O)CCC[C@]4(C)[C@@]3(CC1)OO2 | Non-Toxic | 34.7 µM |
| C=C1CC[C@H](O)/C(C)=C\C[C@@H]2[C@@H]1CC2(C)C | Non-Toxic | 13.6 µM |
| CC(C)[C@]12CC[C@]3(OO1)C(=CC[C@H]1[C@](C)(C(=O)O)CCC[C@@]13C)[C@@H]2O | Non-Toxic | 26.7 µM |
| C=C(C)c1ccc2c(c1)CC[C@H]1[C@](C)(CO)CCC[C@]21C | Non-Toxic | 15.3 µM |
